Test results taken from ChEMBL document CHEMBL5038598, “Design and Synthesis of Pyrrolo[2,3-d]pyrimidine-Derived Leucine-Rich Repeat Kinase 2 (LRRK2) Inhibitors Using a Checkpoint Kinase 1 (CHK1)-Derived Crystallographic Surrogate” (J Med Chem, 2021).
The source made the active and inactive calls. The calls are words filed in the database; no cut-off is given here.

Assays:
[1] = target: T1, Phosphatidylinositol 4-kinase beta (Homo sapiens, UniProt Q9UBF8); assay: Inhibition of human PIK4CB (M1/M828) WT expressed in mammalian system assessed as remaining activity measured at 1 uM by DiscoveRx KINOMEscan assay relative to control
[2] = target: Receptor-type tyrosine-protein kinase FLT3 (Homo sapiens) (UniProt P36888); assay: Inhibition of human FLT3 WT expressed in bacterial system assessed as remaining activity measured at 1 uM by DiscoveRx KINOMEscan assay
[3] = target: Leucine-rich repeat serine/threonine-protein kinase 2 (Homo sapiens, UniProt Q5S007, G2019S); assay: Binding affinity to human LRRK2 (H970/E2527) G2019S mutant expressed in mammalian system assessed as dissociation constant measured at 1 uM by DiscoveRx KINOMEscan assay
[4] = Binding affinity to human PIP5K2C (M1/A421) WT expressed in mammalian system assessed as dissociation constant measured at 1 uM by DiscoveRx KINOMEscan assay
[5] = target: T1, Phosphatidylinositol 4-kinase beta; assay: Binding affinity to human PIK4CB (M1/M828) WT expressed in mammalian system assessed as dissociation constant measured at 1 uM by DiscoveRx KINOMEscan assay
[6] = target: Leucine-rich repeat serine/threonine-protein kinase 2 (Homo sapiens, UniProt Q5S007); assay: Inhibition of LRRK2 WT expressed in human PBMCs measured by KiNativ profiling analysis
[7] = target: T2, Leucine-rich repeat serine/threonine-protein kinase 2 (Mus musculus, UniProt Q5S006); assay: Inhibition of LRRK2-WT-pSER935 in C57BL/6 mouse brain at 10 to 150 mg/kg and measured after 1 hrs by western blotting; type: organism-based
[8] = target: T2, Leucine-rich repeat serine/threonine-protein kinase 2; assay: Inhibition of LRRK2-WT in C57BL/6 mouse brain at 10 to 150 mg/kg and measured after 1 hrs by western blotting; type: organism-based
[9] = Mutagenecity in Salmonella enterica subsp. enterica serovar Typhimurium by Ames test; type: toxicity
[10] = Oral bioavailability in Beagle dog plasma at 2 mg/kg relative to liver blood flow; type: ADME, organism-based, Canis lupus familiaris
[11] = Drug uptake in P-gp la-deficient C57BL/6 mouse brain at 5 mg/kg, sc and measured after 0.5 hrs; type: ADME, organism-based; conditions: read-out: Drug uptake
[12] = Drug uptake in mdrla-deficient C57BL/6 mouse plasma at 5 mg/kg, sc and measured after 0.5 hrs; type: ADME, organism-based
[13] = Drug uptake in Mdr1a/ 1b-BCRP knockout C57BL/6 mouse plasma at 5 mg/kg, sc and measured after 0.5 hrs; type: ADME, organism-based
[14] = Ratio of drug level in Mdr1A deficient C57BL/6 mouse brain to plasma at 5 mg/kg, sc and measured after 0.5 hrs; type: ADME, organism-based
[15] = Ratio of drug level in Md1a/1b C57BL/6 mouse brain to plasma at 5 mg/kg, sc and measured after 0.5 hrs; type: ADME, organism-based
[16] = Ratio of unbound drug level in Md1a deficient C57BL/6 mouse brain to plasma at 5 mg/kg, sc and measured after 0.5 hrs; type: ADME, organism-based
[17] = Drug uptake in C57BL/6 WT mouse brain at 5 mg/kg, sc and measured after 0.5 hrs; type: ADME, organism-based; conditions: C57BL/6, mouse, read-out: Drug uptake
[18] = Drug uptake in C57BL/6 WT mouse plasma at 5 mg/kg, sc and measured after 0.5 hrs; type: ADME, organism-based; conditions: C57BL/6, mouse
[19] = Drug uptake in C57BL/6 WT mouse brain at 5 mg/kg, sc and measured after 1 hrs; type: ADME, organism-based; conditions: C57BL/6, mouse, read-out: Drug uptake
[20] = Drug uptake in Mdr1a deficient C57BL/6 mouse brain at 5 mg/kg, sc and measured after 1 hrs; type: ADME, organism-based; conditions: read-out: Drug uptake
[21] = Drug uptake in C57BL/6 WT mouse plasma at 5 mg/kg, sc and measured after 1 hrs; type: ADME, organism-based; conditions: C57BL/6, mouse
[22] = Drug uptake in Mdr1a deficient C57BL/6 mouse plasma at 5 mg/kg, sc and measured after 1 hrs; type: ADME, organism-based
[23] = Ratio of drug level in C57BL/6 WT mouse brain to plasma at 5 mg/kg, sc and measured after 1 hrs; type: ADME, organism-based; conditions: C57BL/6, mouse
[24] = Ratio of drug level in Mdr1A deficient C57BL/6 mouse brain to plasma at 5 mg/kg, sc and measured after 1 hrs; type: ADME, organism-based
[25] = Ratio of unbound drug level in C57BL/6 WT mouse brain to plasma measured at 5 mg/kg, sc and measured after 1 hrs; type: ADME, organism-based; conditions: C57BL/6, mouse
[26] = Ratio of unbound drug level in Md1a deficient C57BL/6 mouse brain to plasma at 5 mg/kg, sc and measured after 1 hrs; type: ADME, organism-based

T2 sequence (Q5S006 whole entry): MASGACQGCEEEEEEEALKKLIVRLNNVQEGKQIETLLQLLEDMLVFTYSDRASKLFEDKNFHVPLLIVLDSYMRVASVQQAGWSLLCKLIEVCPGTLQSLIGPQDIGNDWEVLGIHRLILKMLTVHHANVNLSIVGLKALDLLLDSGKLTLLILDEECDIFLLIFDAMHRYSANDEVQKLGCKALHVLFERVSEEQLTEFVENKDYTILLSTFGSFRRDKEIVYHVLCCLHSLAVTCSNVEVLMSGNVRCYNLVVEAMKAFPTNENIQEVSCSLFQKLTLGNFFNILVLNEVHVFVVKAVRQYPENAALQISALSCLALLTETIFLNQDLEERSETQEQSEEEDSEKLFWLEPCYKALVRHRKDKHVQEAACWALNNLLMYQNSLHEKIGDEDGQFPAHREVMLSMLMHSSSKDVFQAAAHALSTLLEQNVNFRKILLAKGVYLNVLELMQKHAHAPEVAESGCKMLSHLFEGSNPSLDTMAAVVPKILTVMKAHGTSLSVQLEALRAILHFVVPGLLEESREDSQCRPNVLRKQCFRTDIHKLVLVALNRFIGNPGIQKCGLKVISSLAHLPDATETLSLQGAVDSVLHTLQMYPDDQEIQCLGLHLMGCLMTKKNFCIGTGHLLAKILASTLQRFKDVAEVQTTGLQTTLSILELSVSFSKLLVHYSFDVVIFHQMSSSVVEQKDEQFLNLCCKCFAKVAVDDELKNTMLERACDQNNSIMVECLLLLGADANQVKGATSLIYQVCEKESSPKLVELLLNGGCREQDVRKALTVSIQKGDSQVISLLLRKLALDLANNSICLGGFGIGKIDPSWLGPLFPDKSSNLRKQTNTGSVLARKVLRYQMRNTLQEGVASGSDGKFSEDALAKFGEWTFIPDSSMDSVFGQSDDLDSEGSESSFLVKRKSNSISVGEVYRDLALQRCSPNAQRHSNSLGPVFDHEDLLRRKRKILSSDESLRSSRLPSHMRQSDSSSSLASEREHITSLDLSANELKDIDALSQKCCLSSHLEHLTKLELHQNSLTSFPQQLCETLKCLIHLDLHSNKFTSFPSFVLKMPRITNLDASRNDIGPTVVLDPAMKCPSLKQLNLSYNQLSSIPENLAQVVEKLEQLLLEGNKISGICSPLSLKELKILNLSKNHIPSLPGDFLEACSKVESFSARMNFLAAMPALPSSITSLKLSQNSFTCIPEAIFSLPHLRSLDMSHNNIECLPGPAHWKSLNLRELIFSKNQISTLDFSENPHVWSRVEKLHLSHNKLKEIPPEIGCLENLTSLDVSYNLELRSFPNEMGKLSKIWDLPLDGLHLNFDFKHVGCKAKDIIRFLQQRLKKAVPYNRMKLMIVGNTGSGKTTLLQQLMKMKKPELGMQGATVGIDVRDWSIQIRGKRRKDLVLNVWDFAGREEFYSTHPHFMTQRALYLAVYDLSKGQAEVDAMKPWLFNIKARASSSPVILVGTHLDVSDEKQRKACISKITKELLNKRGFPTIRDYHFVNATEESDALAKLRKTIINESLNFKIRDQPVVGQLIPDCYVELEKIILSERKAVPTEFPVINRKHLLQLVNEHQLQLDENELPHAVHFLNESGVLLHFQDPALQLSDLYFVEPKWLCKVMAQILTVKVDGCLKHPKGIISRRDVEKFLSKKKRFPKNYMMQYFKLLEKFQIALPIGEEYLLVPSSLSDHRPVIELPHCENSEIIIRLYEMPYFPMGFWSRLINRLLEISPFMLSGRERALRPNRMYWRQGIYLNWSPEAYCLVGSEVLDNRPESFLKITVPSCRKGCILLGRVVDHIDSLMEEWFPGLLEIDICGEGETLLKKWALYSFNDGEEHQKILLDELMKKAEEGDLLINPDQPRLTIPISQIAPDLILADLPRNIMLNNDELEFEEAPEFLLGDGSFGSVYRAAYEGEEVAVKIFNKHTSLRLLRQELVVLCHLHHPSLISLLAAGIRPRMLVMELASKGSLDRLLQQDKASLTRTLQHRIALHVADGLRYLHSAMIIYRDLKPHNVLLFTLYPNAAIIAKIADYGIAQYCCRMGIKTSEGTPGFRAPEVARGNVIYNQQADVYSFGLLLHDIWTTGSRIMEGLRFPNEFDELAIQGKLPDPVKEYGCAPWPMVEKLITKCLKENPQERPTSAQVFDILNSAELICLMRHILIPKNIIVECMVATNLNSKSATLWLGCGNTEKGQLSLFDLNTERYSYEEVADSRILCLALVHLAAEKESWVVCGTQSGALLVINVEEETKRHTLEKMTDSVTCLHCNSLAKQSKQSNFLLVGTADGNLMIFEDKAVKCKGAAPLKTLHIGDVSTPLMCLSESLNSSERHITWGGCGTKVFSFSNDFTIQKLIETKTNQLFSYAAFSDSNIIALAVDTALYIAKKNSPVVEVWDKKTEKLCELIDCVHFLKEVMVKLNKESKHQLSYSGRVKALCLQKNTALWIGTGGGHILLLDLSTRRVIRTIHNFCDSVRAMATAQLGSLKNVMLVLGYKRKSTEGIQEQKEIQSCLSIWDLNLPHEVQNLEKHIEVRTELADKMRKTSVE
Sequence of Leucine-rich repeat serine/threonine-protein kinase 2 (Homo sapiens, UniProt Q5S007) (Q5S007 whole entry): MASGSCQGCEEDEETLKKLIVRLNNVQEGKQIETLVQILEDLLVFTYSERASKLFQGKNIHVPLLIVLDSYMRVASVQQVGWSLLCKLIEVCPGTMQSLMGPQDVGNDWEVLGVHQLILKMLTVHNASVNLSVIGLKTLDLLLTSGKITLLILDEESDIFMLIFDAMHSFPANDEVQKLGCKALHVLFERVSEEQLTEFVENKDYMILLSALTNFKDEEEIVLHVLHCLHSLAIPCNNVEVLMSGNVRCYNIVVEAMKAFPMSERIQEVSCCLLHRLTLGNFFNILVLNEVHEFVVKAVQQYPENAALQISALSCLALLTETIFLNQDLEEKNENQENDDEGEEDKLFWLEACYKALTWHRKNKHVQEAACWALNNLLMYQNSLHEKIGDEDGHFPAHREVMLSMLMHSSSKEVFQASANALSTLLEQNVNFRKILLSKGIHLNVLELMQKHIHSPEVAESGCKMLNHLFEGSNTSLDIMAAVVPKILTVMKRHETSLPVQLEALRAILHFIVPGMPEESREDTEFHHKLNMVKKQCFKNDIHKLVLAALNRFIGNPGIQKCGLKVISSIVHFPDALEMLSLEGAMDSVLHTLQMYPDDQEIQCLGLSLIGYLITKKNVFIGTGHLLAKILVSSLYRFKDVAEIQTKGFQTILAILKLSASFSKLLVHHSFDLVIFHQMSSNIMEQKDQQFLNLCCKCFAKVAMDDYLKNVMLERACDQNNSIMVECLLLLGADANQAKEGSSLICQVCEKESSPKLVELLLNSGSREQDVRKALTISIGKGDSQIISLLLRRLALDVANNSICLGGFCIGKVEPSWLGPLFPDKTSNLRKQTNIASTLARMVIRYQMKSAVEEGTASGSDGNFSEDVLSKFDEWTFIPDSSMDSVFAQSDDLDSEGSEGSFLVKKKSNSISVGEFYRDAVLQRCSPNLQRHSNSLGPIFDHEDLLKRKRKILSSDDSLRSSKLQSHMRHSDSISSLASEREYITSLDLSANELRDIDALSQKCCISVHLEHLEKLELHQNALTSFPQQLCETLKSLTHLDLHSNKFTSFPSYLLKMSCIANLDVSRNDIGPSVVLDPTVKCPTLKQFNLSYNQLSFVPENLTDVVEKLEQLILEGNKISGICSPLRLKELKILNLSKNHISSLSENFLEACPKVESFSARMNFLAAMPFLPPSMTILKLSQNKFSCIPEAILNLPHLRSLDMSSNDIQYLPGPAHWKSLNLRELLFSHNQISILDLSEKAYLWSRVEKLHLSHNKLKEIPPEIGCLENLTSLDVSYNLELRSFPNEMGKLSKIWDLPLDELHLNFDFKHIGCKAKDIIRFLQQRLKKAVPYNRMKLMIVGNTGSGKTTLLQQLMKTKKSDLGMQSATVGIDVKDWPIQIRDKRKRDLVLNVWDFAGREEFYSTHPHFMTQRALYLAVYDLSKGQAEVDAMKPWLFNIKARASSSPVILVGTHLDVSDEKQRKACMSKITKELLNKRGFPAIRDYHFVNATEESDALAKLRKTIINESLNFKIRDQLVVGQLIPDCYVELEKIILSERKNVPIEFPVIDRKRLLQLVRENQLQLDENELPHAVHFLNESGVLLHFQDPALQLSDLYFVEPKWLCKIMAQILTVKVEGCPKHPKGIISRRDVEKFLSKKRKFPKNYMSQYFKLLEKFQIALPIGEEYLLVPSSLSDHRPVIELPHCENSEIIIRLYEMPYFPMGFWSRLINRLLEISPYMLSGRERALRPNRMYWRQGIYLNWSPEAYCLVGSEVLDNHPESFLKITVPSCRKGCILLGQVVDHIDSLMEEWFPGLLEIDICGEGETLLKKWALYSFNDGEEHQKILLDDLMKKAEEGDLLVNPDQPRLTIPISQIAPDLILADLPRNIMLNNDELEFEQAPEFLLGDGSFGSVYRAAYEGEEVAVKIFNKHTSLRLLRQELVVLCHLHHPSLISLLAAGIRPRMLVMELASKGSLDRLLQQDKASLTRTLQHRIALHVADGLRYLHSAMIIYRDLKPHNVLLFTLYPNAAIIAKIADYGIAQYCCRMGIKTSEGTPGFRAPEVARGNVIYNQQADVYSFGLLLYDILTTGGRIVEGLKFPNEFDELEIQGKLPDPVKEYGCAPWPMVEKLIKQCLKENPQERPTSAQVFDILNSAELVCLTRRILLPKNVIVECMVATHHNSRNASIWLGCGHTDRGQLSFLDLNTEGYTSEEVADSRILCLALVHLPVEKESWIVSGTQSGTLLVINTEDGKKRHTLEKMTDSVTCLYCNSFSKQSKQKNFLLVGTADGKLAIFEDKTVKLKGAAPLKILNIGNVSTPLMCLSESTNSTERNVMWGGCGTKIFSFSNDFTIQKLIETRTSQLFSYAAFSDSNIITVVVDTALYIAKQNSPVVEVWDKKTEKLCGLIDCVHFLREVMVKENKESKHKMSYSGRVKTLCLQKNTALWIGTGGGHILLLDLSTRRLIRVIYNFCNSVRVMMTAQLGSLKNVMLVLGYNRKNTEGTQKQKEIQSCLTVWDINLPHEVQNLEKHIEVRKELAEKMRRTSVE
Sequence of Leucine-rich repeat serine/threonine-protein kinase 2 (Homo sapiens, UniProt Q5S007, G2019S) (Q5S007 whole entry G2019S): as the sequence (Q5S007 whole entry) above, with G2019S counted along it

Question: For Cc1c(Nc2nc(N)c3c(C#N)c(N4CCC[C@H]4C)n(C)c3n2)cnn1[C@@H]1CCOC1, which Activity [1] is on record?
Answer: < 37%

Question: What about the inhibition [2] of the same compound?
Answer: inactive

Question: And the Kd [3]?
Answer: 3.9 nM

Question: What about the Kd [4] of the same compound?
Answer: 190 nM

Question: And the Kd [5]?
Answer: 850 nM

Question: And the IC50 [6]?
Answer: 67 nM

Question: And the IC50 [7]?
Answer: 16 nM

Question: And the IC50 [8]?
Answer: 11 nM

Question: And the Activity [9]?
Answer: Non-Toxic

Question: What about the bioavailability [10] of the same compound?
Answer: 25%

Question: And the concentration at 0.5 h [11]?
Answer: 256 ng/g

Question: What about the concentration at 0.5 h [12] of the same compound?
Answer: 2140 ng/mL

Question: And the concentration at 0.5 h [13]?
Answer: 1960 ng/mL

Question: And the Kp at 0.5 h [14]?
Answer: 0.31

Question: And the Kp at 0.5 h [15]?
Answer: 1.05

Question: And the Kp uu at 0.5 h [16]?
Answer: 0.11

Question: Which Activity [1] does the source give for Cc1c(Nc2nc(N)c3c(C#N)c(N4CCC[C@H]4C)n(C)c3n2)cnn1[C@H]1CCOC1 here?
Answer: < 37%

Question: What about the inhibition [2] of the same compound?
Answer: inactive

Question: And the Kd [3]?
Answer: 5.5 nM

Question: What about the Kd [4] of the same compound?
Answer: 430 nM

Question: What about the Kd [5] of the same compound?
Answer: 730 nM

Question: And the IC50 [6]?
Answer: 86 nM

Question: What about the IC50 [7] of the same compound?
Answer: 23 nM

Question: And the IC50 [8]?
Answer: 22 nM

Question: And the Activity [9]?
Answer: Non-Toxic

Question: What about the bioavailability [10] of the same compound?
Answer: 96%

Question: And the concentration at 0.5 h [17]?
Answer: 73 ng/g

Question: And the concentration at 0.5 h [18]?
Answer: 1610 ng/mL

Question: And the concentration at 0.5 h [13]?
Answer: 1600 ng/mL

Question: What about the concentration at 1 h [19] of the same compound?
Answer: 17 ng/g

Question: What about the concentration at 1 h [20] of the same compound?
Answer: 675 ng/g

Question: What about the concentration at 1 h [21] of the same compound?
Answer: 440 ng/mL

Question: And the concentration at 1 h [22]?
Answer: 100 ng/mL

Question: What about the Kp at 0.5 h [15] of the same compound?
Answer: 0.65

Question: What about the Kp at 1 h [23] of the same compound?
Answer: 0.04

Question: What about the Kp at 1 h [24] of the same compound?
Answer: 0.15

Question: What about the Kp uu at 1 h [25] of the same compound?
Answer: 0.014

Question: What about the Kp uu at 1 h [26] of the same compound?
Answer: 0.056
